The source of these data is ChEMBL document CHEMBL1136615, “Carbonic anhydrase inhibitors: inhibition of cytosolic isozymes I and II with sulfamide derivatives” (Bioorg Med Chem Lett, 2003).

In test [1] the target is Carbonic anhydrase 2 (Homo sapiens, UniProt P00918).
Description: Inhibitory activity against human cloned isoenzyme carbonic anhydrase II (hCA II), by esterase method.
Test [2] deals with Carbonic anhydrase 1 (Homo sapiens, UniProt P00915).
Carbonic anhydrase 1, sequence (P00915 whole entry): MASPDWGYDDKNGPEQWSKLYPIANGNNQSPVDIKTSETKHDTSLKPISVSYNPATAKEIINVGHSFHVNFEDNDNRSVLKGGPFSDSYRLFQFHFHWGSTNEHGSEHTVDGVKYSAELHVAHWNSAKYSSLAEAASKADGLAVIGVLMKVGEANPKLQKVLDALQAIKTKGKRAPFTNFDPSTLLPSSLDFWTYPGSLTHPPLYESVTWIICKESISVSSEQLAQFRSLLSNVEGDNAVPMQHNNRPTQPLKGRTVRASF
Description: Inhibitory activity against human cloned isoenzyme carbonic anhydrase I (hCA I), by esterase method.

In general, Ki refers to the dissociation constant of the complex between target and ligand, obtained from inhibition or displacement. As for `COc1ccc(NS(N)(=O)=O)cc1`, the Ki in test [1] came to 11 nM; in test [2] it was 14 nM. `NS(=O)(=O)N1CCCCCC1`: the Ki in test [1] is 131 nM; in test [2] it was 163 nM. As for `NS(=O)(=O)Nc1ccc(I)cc1`, the Ki in test [1] is 17 nM; in test [2], 18 nM. Consider `NS(=O)(=O)Nc1ccc(Br)cc1`, for which the Ki in test [2] came out at 23 nM. On to `CCOC(=O)c1ccc(NS(N)(=O)=O)cc1`, for which the Ki in test [1] worked out at 19 nM; in test [2], 26 nM. The matching figures for `NS(=O)(=O)N(C1CCCCC1)C1CCCCC1`: over 100000 nM and over 100000 nM. For the compound `NS(=O)(=O)Nc1ccc(Cl)cc1`, the Ki in test [1] turned out to be 15 nM; in test [2], 19 nM. The matching figures for `CC(C)N(C(C)C)S(N)(=O)=O`: over 100000 nM and over 100000 nM. As for `Cc1ccc(NS(N)(=O)=O)cc1`, the Ki in test [1] was 13 nM; in test [2], 15 nM. The matching figures for `NS(=O)(=O)NCc1ccccc1`: 123 nM and 133 nM. The matching figures for `NS(=O)(=O)Nc1ccc([N+](=O)[O-])cc1`: 13 nM and 18 nM. `NS(=O)(=O)Nc1cccc(C(=O)c2ccccc2)c1`: the figures for the Ki in test [1] and in test [2] were 49 nM and 62 nM, respectively.

Take `CCCCNS(N)(=O)=O`: the figures for the Ki in test [1] and in test [2] were 148 nM and 173 nM, respectively. The matching figures for `NS(=O)(=O)NC1CCCCC1`: 450 nM and 164 nM. The matching figures for `NS(=O)(=O)Nc1ccc(O)cc1`: 12 nM and 16 nM.

`CN(C)c1ccc(NS(N)(=O)=O)cc1`: the Ki came to 21 nM in test [1] and 17 nM in test [2].

For `NS(=O)(=O)N(Cc1ccccc1)Cc1ccccc1`, the results for the Ki in test [1] and in test [2] were 647 nM and over 100000 nM, respectively. The matching figures for `NS(=O)(=O)NC1C2CC3CC(C2)CC1C3` (stereo not given): 890 nM and 960 nM.

As for `CC(C)CN(CC(C)C)S(N)(=O)=O`, the Ki in test [1] and in test [2] was over 100000 nM each time. For `NS(=O)(=O)NCCSSCCNS(N)(=O)=O`, the Ki in test [1] amounted to 27 nM; in test [2], 149 nM. Take `NS(=O)(=O)Nc1ccccc1` [PHENYLSULFAMIDE]: in test [2], affinity was put at a Ki of 13 nM. This lies in the double-digit nanomolar range.
